Tests used:
[1] = Storage stability of aqueous liquid compositions of fludrocortisone acetate (Example 1), HPLC; type: physicochemical; conditions: conclusion from Tables 1a-1c, 40° C., 75% RH, three months
Description: Storage conditions of temperature (40° C.) and relative humidity (75%) applied for a period of three months. Quantification of fludrocortisone acetate and its degradation impurities was performed by HPLC.

[2] = relative to cortisol; cited from earlier work

- stability of fludrocortisone acetate in aqueous compositions [1]: unstable and easily hydrolyzed
SMILES: CC(=O)OCC(=O)[C@@]1(O)CC[C@H]2[C@@H]3CCC4=CC(=O)CC[C@]4(C)[C@@]3(F)[C@@H](O)C[C@@]21C [Fludrocortisone acetate]
- glucocorticoid potency [2]: 10 times

Reference: patent US11771706B2, “Oral solutions comprising fludrocortisone acetate” (LABOMED PHARMACEUTICAL COMPANY S.A., priority 2020, dated 2023)
